Assay [1] has as its system release of the excitatory amino acids, glutamate and aspartate. Particulars: Leach et al Epilepsia 27, 490-497 1986; Miller et al 1987; cited from earlier work.
For another assay, the target named is T1, Rat Liver DHFR (Rattus norvegicus, UniProt Q920D2).
T1 construct: from tissue; host or cells: rat liver
T1 sequence (Q920D2 1-187): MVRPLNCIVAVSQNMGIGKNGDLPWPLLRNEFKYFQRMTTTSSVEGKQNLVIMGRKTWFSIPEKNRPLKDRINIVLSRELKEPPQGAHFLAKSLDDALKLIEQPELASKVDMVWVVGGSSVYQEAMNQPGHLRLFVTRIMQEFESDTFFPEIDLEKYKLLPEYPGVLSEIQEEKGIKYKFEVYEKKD
As to the kind of experiment: inhibition of DHFR activity. Type of assay: biochemical. Particulars: rat liver DHFR enzyme activity; read-out: IC50(μM) Rat Liver DHFR (P95 limits). The method, then: (§1) Compounds of formula (Ia) were tested for their effect on veratrine-evoked release of glutamate from rat brain slices according to the protocol described in Epilepsia 27(5): 490-497, 1986. The protocol for testing for inhibition of DHFR activity was a modification of that set out in Biochemical Pharmacology Vol.20 pp 561-574, 1971.
(§2) The results are given in Table 1, the IC₅₀ being the concentration of compound to […] 50% of DHFR enzyme activity.

Assay [2] deals with veratrine-evoked release of glutamate from rat brain slices. As to the kind of experiment: veratrine-evoked release of glutamate from rat brain slices. Type of assay: cell-based. Particulars: read-out: IC50(μM) Glutamate Release (P95 limits). As to the method:
as §1, §2

Data on six compounds can be found in patent EP0459830A1, “Pharmacologically active CNS compounds” (THE WELLCOME FOUNDATION LIMITED, priority 1990, dated 1991).

As to `Nc1nnc(-c2cccc(Cl)c2Cl)c(N)n1` [lamotrigine, 3,5-diamino-6-(2,3-dichlorophenyl)-1,2,4-triazine], in assay [1], the “inhibition of release of glutamate and aspartate” value was “inhibit the release of the excitatory amino acids, glutamate and aspartate”.
As for `Nc1cc(-c2ccccc2Cl)nc(N)n1` [Example 2, 2,4-Diamino-6-(2-chlorophenyl)pyrimidine], the IC50 on Rat Liver DHFR is above 100 µM; in assay [2], 10 µM.
As for `Nc1cc(-c2cccc(Cl)c2Cl)nc(N)n1` [Example 1, 2,4-Diamino-6-(2,3-dichlorophenyl)pyrimidine], the values for the IC50 (on Rat Liver DHFR; in assay [2]) were below 100 µM and 10 µM, respectively.
As to `Nc1cc(-c2cccc3ccccc23)nc(N)n1` [Example 4, 2,4-Diamino-6-(1-naphthyl)pyrimidine], the IC50 on Rat Liver DHFR was 100 µM; in assay [2], above 10 µM.
With `Cc1c(N)nc(N)nc1-c1ccc(Cl)cc1` [*, 2,4-Diamino-5-methyl-6-(4-chlorophenyl)pyrimidine], the results for the IC50 (at Rat Liver DHFR; in assay [2]) were above 55 µM and above 10 µM, respectively.
The like results for `Nc1cc(-c2ccc(Cl)cc2Cl)nc(N)n1` [Example 3, 2,4-Diamino-6-(2,4-Dichlorophenyl)pyrimidine] were, in that order, below 100 µM and above 10 µM.

Broadly, the IC50 is the concentration needed to halve the response being measured.
